This passage reports inhibition, IC50 and Kd results from publication PMC10030462, “SB2301-mediated perturbation of membrane composition in lipid droplets induces lipophagy and lipid droplets ubiquitination” (Communications Biology, 2023).

For test [1], the system named is HeLa human cervical cancer cells. The test can be described thus: cells. Set-up: cellular lipid droplet reduction, fluorescence imaging high-content phenotypic screen. Conditions: 24 h, lipid droplet reduction in HeLa; for IC50: read-out: LD reduction (IC50, uM) Potency. As to the method: The LD reduction activity of these analogues (1–20) was initially evaluated in human cervical cancer HeLa cells at a fixed concentration (10 μM each) to determine the efficacy of LD reduction. In addition, potency was determined by measuring the half-maximal inhibitory concentration (IC50) (Supplementary Table 1). Compounds with high cytotoxicity and low water solubility were excluded during high-content phenotypic screening. […] We also observed a similar pattern of LD reduction in human hepatocellular carcinoma HepG2 cells (Supplementary Fig. 2A) and mouse hepatocyte AML12 cells (Supplementary Fig. 2B). Consistent with the reduction in cellular LDs, the cellular triglyceride (TG) content was reduced in a dose-dependent manner (Fig. 1E). Based on these findings, we conducted a further study to determine the mechanism by which SB2301 reduced cellular LDs.

The target of test [2] is T1, PCYT2 (ethanolamine-phosphate cytidylyltransferase 2) (Homo sapiens, UniProt Q99447).
T1 construct: Human PCYT2 (Prospec, enz-221)
The test can be described thus: SPR (Biacore T100, immobilized human PCYT2, […] fit); also CETSA and TS-FITGE in HepG2 cells. The test is classed as binding.

T1 sequence (Q99447 whole entry): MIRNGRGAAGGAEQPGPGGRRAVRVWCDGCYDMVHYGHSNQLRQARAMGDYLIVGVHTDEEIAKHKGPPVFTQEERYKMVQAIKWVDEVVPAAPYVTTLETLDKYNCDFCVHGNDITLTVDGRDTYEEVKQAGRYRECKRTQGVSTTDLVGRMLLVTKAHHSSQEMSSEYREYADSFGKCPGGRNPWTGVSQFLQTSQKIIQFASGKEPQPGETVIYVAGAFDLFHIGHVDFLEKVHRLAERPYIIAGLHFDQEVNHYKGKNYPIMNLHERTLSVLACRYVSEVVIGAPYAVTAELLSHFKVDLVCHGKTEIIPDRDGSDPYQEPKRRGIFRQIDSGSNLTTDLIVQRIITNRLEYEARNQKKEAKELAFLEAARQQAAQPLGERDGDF

In general, inhibition refers to the change of the read-out against control, counted positive when it falls. The IC50 is the point on the concentration scale where inhibition reaches its midpoint. In the case of `COc1ccccc1-n1cc(-c2ccc3cc(-c4cccc(O)c4)ccc3n2)nn1` [compound 1, 1], in test [1], the inhibition at 10 µM amounted to 50% and the IC50 is 6.7 µM.

Take `COc1ccc(-n2cc(-c3ccc4cc(-c5cccc(O)c5)ccc4n3)nn2)cc1` [compound 3, 3]: in test [1], the inhibition at 10 µM stood at 19% and the IC50 amounted to 3.7 µM.

In general, Kd refers to the free concentration of one partner at which half of the binding sites on the other are occupied at equilibrium, for simple one-to-one binding. Read a high Kd as weaker binding. On to `Oc1cccc(-c2ccc3nc(-c4cn(-c5ccccc5C(F)(F)F)nn4)ccc3c2)c1` [compound 4, SB2301], for which, in test [1], the inhibition at 10 µM was 64.5% and the IC50 came to 4.4 µM. Moreover, the Kd in test [2] is approximately 26 µM.

Consider `Oc1cccc(-c2ccc3nc(-c4cn(-c5ccc(C(F)(F)F)cc5)nn4)ccc3c2)c1` [compound 6, 6], for which, in test [1], the inhibition at 10 µM turned out to be 35.9% and the IC50 turned out to be 32 µM.

With `N#Cc1ccccc1-n1cc(-c2ccc3cc(-c4cccc(O)c4)ccc3n2)nn1` [compound 7, 7], in test [1], the inhibition at 10 µM turned out to be 30.4% and the IC50 was found to be 14.8 µM.

`N#Cc1cccc(-n2cc(-c3ccc4cc(-c5cccc(O)c5)ccc4n3)nn2)c1` [compound 8, 8]: in test [1], the inhibition at 10 µM was -7.1% and the IC50 came out at 27.6 µM.

For the compound `Oc1cccc(-c2ccc3nc(-c4cn(-c5ccccc5Cl)nn4)ccc3c2)c1` [compound 10, 10], in test [1], the inhibition at 10 µM came to 2.7% and the half-inhibitory concentration (IC50) is 10.1 µM.

Take `Oc1cccc(-c2ccc3nc(-c4cn(-c5cccc(F)c5)nn4)ccc3c2)c1` [compound 11, 11]: in test [1], the inhibition at 10 µM is 19.2% and the IC50 amounted to 20.6 µM.

Turning to `Oc1cccc(-c2ccc3nc(-c4cn(-c5ccc(Br)cc5)nn4)ccc3c2)c1` [compound 12, 12], in test [1], the inhibition at 10 µM came out at 36.8% and the IC50 was 4.7 µM.

In the case of `Oc1cccc(-c2ccc3nc(-c4cn(-c5ccccc5O)nn4)ccc3c2)c1` [compound 13, 13], in test [1], the inhibition at 10 µM stood at 12.7% and the IC50 amounted to 11.6 µM.

Turning to `O=[N+]([O-])c1ccccc1-n1cc(-c2ccc3cc(-c4cccc(O)c4)ccc3n2)nn1` [compound 14, 14], in test [1], the inhibition at 10 µM is 48.5% and the IC50 came to 7.9 µM.
